Measured values: ChEMBL document CHEMBL1201862, “PubChem BioAssay data set” (2004)
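Exposure lasted 48 hours, with cells grown in 96-well plates and compounds tested at five concentrations. GI50: concentration for 50% inhibition of growth.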 Activity calls are given as the source filed them. No stated cut-off is given here; in the data, active = GI50 up to about 1.1 µM and inactive = higher.

Tests used:
Assay in all cases: NCI anticancer screen, dose series, 48 h
OVCAR-4 = tested on: OVCAR-4
NCI-H23 = tested on: NCI-H23
HOP-62 = tested on: HOP-62
HCC 2998 = tested on: HCC 2998
ACHN = tested on: ACHN
NCI/ADR-RES = tested on: NCI/ADR-RES
HCT-15 = tested on: HCT-15
RPMI-8226 = tested on: RPMI-8226
OVCAR-5 = tested on: OVCAR-5
SNB-75 = tested on: SNB-75
LOX IMVI = tested on: LOX IMVI
HCT-116 = tested on: HCT-116
IGROV-1 = tested on: IGROV-1
HT-29 = tested on: HT-29
OVCAR-8 = tested on: OVCAR-8
SN12C = tested on: SN12C
HL-60 = tested on: HL-60
MOLT-4 = tested on: MOLT-4
SK-MEL-28 = tested on: SK-MEL-28
TK-10 = tested on: TK-10
SR = tested on: SR
OVCAR-3 = tested on: OVCAR-3
MDA-MB-435 = tested on: MDA-MB-435
CAKI-1 = tested on: CAKI-1
SK-OV-3 = tested on: SK-OV-3
MDA-MB-231 = tested on: MDA-MB-231
SK-MEL-2 = tested on: SK-MEL-2
SF-295 = tested on: SF-295
UO-31 = tested on: UO-31
CCRF-CEM = tested on: CCRF-CEM
SW-620 = tested on: SW-620
DU-145 = tested on: DU-145
MDA-N = tested on: MDA-N
NCI-H522 = tested on: NCI-H522
COLO 205 = tested on: COLO 205
Hs-578T = tested on: Hs-578T
NCI-H460 = tested on: NCI-H460
SK-MEL-5 = tested on: SK-MEL-5
UACC-257 = tested on: UACC-257
HOP-92 = tested on: HOP-92
M14 = tested on: M14
NCI-H226 = tested on: NCI-H226
SNB-19 = tested on: SNB-19
T47D = tested on: T47D
PC-3 = tested on: PC-3
A549 = tested on: A549
K562 = tested on: K562
U-251 = tested on: U-251
A498 = tested on: A498
Malme-3M = tested on: Malme-3M
RXF 393 = tested on: RXF 393
786-0 = tested on: 786-0
UACC-62 = tested on: UACC-62
KM12 = tested on: KM12
SF-268 = tested on: SF-268
EKVX = tested on: EKVX
MCF7 = tested on: MCF7
SF-539 = tested on: SF-539

Measured: GI50

CSCCC(NC(=O)OCc1ccccc1)NC(=O)OCc1ccccc1
inactive: OVCAR-4 > 100 µM | NCI-H23 > 100 µM | HOP-62 > 100 µM | HCC 2998 > 100 µM | ACHN > 100 µM | NCI/ADR-RES > 100 µM | RPMI-8226 > 100 µM | OVCAR-5 > 100 µM | SNB-75 > 100 µM | LOX IMVI > 100 µM | HCT-116 > 100 µM | IGROV-1 > 100 µM | HT-29 > 100 µM | OVCAR-8 > 100 µM | SN12C > 100 µM | HL-60 > 10 µM | MOLT-4 > 100 µM | SK-MEL-28 > 100 µM | TK-10 > 100 µM | SR > 100 µM | OVCAR-3 > 100 µM | MDA-MB-435 > 100 µM | CAKI-1 > 100 µM | SK-OV-3 > 100 µM | MDA-MB-231 > 100 µM | SK-MEL-2 > 100 µM | SF-295 > 100 µM | UO-31 > 100 µM | CCRF-CEM > 10 µM | SW-620 > 100 µM | DU-145 > 100 µM | MDA-N > 100 µM | NCI-H522 > 100 µM | COLO 205 > 100 µM | Hs-578T > 100 µM | NCI-H460 > 100 µM | SK-MEL-5 > 100 µM | UACC-257 > 100 µM | HOP-92 > 100 µM | M14 > 100 µM | NCI-H226 > 100 µM | SNB-19 > 100 µM | T47D 59.8 µM | PC-3 > 100 µM | A549 > 100 µM | K562 > 100 µM | U-251 > 100 µM
> 100 µM: HCT-15

Cc1nc2ccccc2c(-n2cccn2)c1CCn1cccn1
inactive: OVCAR-4 23.8 µM | NCI-H23 > 100 µM | HOP-62 > 100 µM | A498 46.3 µM | Malme-3M > 100 µM | HCC 2998 > 100 µM | ACHN 80.7 µM | NCI/ADR-RES > 100 µM | RPMI-8226 > 100 µM | OVCAR-5 > 100 µM | LOX IMVI 50.6 µM | HCT-116 > 100 µM | IGROV-1 85.9 µM | HT-29 > 100 µM | OVCAR-8 > 100 µM | RXF 393 > 100 µM | SN12C > 100 µM | HL-60 > 100 µM | MOLT-4 39.4 µM | SK-MEL-28 > 100 µM | TK-10 > 100 µM | SR 71.4 µM | OVCAR-3 40.4 µM | MDA-MB-435 > 100 µM | 786-0 > 100 µM | CAKI-1 > 100 µM | SK-OV-3 > 100 µM | MDA-MB-231 51.4 µM | SK-MEL-2 > 100 µM | UACC-62 80.2 µM | SF-295 > 100 µM | UO-31 1.77 µM | CCRF-CEM 66.1 µM | SW-620 > 100 µM | KM12 > 100 µM | DU-145 > 100 µM | MDA-N > 100 µM | SF-268 > 100 µM | NCI-H522 > 100 µM | COLO 205 96.6 µM | Hs-578T > 100 µM | NCI-H460 > 100 µM | SK-MEL-5 46.6 µM | UACC-257 > 100 µM | EKVX > 100 µM | HOP-92 52.8 µM | M14 > 100 µM | NCI-H226 > 100 µM | MCF7 > 100 µM | SNB-19 > 100 µM | T47D > 100 µM | PC-3 > 100 µM | A549 > 100 µM | K562 55 µM | U-251 > 100 µM | SF-539 > 100 µM
> 100 µM: HCT-15

O=P(c1ccccc1)(c1ccccc1)C(NCc1ccccc1)c1ccc(F)cc1 (stereo not given)
inactive: OVCAR-4 20.3 µM | NCI-H23 13.6 µM | HOP-62 21.6 µM | A498 15.2 µM | Malme-3M 17.9 µM | HCC 2998 16.1 µM | ACHN 13.8 µM | NCI/ADR-RES 14 µM | RPMI-8226 25.9 µM | SNB-75 23.8 µM | LOX IMVI 14.2 µM | HCT-116 12.8 µM | IGROV-1 15.5 µM | HT-29 13.2 µM | OVCAR-8 19 µM | RXF 393 13.4 µM | SN12C 17.9 µM | HL-60 17.5 µM | MOLT-4 14.2 µM | SK-MEL-28 15.1 µM | TK-10 15.9 µM | SR 15 µM | OVCAR-3 14.2 µM | MDA-MB-435 8.41 µM | 786-0 18.5 µM | CAKI-1 17 µM | SK-OV-3 16.1 µM | MDA-MB-231 11.1 µM | SK-MEL-2 15 µM | UACC-62 13 µM | SF-295 15.2 µM | UO-31 12.8 µM | CCRF-CEM 16.9 µM | SW-620 18.5 µM | KM12 13.2 µM | DU-145 20 µM | MDA-N 17.1 µM | SF-268 19.7 µM | NCI-H522 11.5 µM | COLO 205 14.7 µM | Hs-578T 28.4 µM | NCI-H460 12.2 µM | SK-MEL-5 15.9 µM | UACC-257 18 µM | EKVX 12.7 µM | HOP-92 12.9 µM | M14 14.7 µM | NCI-H226 16.2 µM | SNB-19 17.9 µM | T47D 26.5 µM | A549 15 µM | K562 18.7 µM | U-251 15.6 µM | SF-539 17.7 µM
13.2 µM: HCT-15
